{"source": "ChEMBL document CHEMBL5257071", "about": "“Total Synthesis and Biological Evaluation of the Anti-Inflammatory (13R,14S,15R)-13-Hydroxy-14-deoxyoxacyclododecindione” (J Nat Prod, 2023)"}
{"target": "Mothers against decapentaplegic homolog 2/homolog 3 (Homo sapiens, UniProt P84022+Q15796)", "assay": "Inhibition of TGF-beta induced Smad2/3 signaling in human HepG2 cells harboring pRL-EF1alpha, (CAGA)9x-MLP-Luc plasmid assessed as luciferase activity incubated for 24 hrs by Promega reporter rene assay", "format": "cell-based", "units": {"IC50": "nM"}}
{"smiles": "C/C1=C\\C[C@@H](O)[C@H](C)[C@@H](C)OC(=O)Cc2c(Cl)c(O)cc(O)c2C1=O", "IC50": 236}
{"smiles": "C/C1=C\\CCC(C)(O)C(C)OC(=O)Cc2c(Cl)c(O)cc(O)c2C1=O", "note": "(centres undefined)", "IC50": 137}
{"smiles": "C/C1=C\\CCC(C)(C)C(C)OC(=O)Cc2c(Cl)c(O)cc(O)c2C1=O", "note": "(centres undefined)", "IC50": 30}
{"smiles": "C/C1=C\\CC[C@H](C)[C@@H](C)OC(=O)Cc2c(Cl)c(O)cc(O)c2C1=O", "IC50": 90}
